Test [1] addresses T1, WRN [UniPro: Q14191 (WRN_HUMAN), N500-C946] (Homo sapiens (Human), UniProt Q14191). Kind of test: WRN ATPase assay (ADP-Glo). The note with it: WRN enzymatic activity assay. In kind it is biochemical.
The target in test [2] is T1, WRN [UniPro: Q14191 (WRN_HUMAN), N500-C946]. Nature of the test: WRN unwinding assay (FORKF DNA, fluorescence). The format is biochemical. The conditions noted are these: Table 14.

pIC50: −log10 of the molar value. Some results are limits rather than exact numbers.

What is called pIC50 is −log10 of the IC50, conventionally taken in molar units.

T1 sequence (Q14191 500-946): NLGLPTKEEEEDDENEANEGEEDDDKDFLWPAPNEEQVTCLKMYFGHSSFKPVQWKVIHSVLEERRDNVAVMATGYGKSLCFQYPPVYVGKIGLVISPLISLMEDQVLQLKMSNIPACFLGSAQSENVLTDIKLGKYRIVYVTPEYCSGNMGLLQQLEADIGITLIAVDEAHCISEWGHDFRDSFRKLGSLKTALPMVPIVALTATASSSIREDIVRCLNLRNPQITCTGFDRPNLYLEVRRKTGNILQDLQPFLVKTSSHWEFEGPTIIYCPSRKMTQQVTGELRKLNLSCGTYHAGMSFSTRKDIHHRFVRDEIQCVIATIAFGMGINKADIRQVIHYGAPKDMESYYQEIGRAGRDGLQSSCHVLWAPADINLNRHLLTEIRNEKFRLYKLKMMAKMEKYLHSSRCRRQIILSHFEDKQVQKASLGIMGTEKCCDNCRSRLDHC

Consider `CCc1c(N2CCN(C(=O)CNC(=O)c3ccc(F)c(NC)c3)CC2)c(=O)n2nc(N3CCOCC3)nc2n1CC(=O)Nc1ccc(C(F)(F)F)cc1F` [Example 256, N-(2-(4-(5-Ethyl-4-(2-((2-fluoro-4-(trifluoromethyl)phenyl)amino)-2-oxoethyl)-2-morpholino-7-oxo-4,7-dihydro-[1,2,4]triazolo[1,5-a]pyrimidin-6-yl)piperazin-1-yl)-2-oxoethyl)-4-fluoro-3-(methylamino)benzamide], for which the pIC50 in test [1] and in test [2] was more than 7.00 throughout.
Consider `CCOc1nc2n(CC(=O)Nc3ccc(C(F)(F)F)cc3Cl)c(CC)c(N3CCN(C(=O)CNC(=O)c4ccccc4F)CC3)c(=O)n2n1` [Example 239, N-(2-(4-(4-(2-((2-Chloro-4-(trifluoromethyl)phenyl)amino)-2-oxoethyl)-2-ethoxy-5-ethyl-7-oxo-4,7-dihydro-[1,2,4]triazolo[1,5-a]pyrimidin-6-yl)piperazin-1-yl)-2-oxoethyl)-2-fluorobenzamide], for which the negative-log IC50 (pIC50) in test [1] and in test [2] was 6.00 to 7.00 throughout.
Regarding `CCc1c(N2CCN(C(=O)C(=O)Nc3nc(C)cs3)CC2)c(=O)n2nc(C3=CCOCC3)nc2n1CC(=O)Nc1ccc(C(F)(F)F)cc1F` [Example 350, 2-(4-(2-(3,6-Dihydro-2H-pyran-4-yl)-5-ethyl-4-(2-((2-fluoro-4-(trifluoromethyl)phenyl)amino)-2-oxoethyl)-7-oxo-4,7-dihydro-[1,2,4]triazolo[1,5-a]pyrimidin-6-yl)piperazin-1-yl)-N-(4-methylthiazol-2-yl)-2-oxoacetamide], the negative-log IC50 (pIC50) in test [1] and in test [2] was more than 7.00 each time.
With `CCc1c(N2CCN(C(=O)CNC(=O)c3ccncc3O)CC2)c(=O)n2nc(C3=CCOCC3)nc2n1CC(=O)Nc1ccc(C(F)(F)F)cc1Cl` [Example 381, N-(2-(4-(4-(2-((2-Chloro-4-(trifluoromethyl)phenyl)amino)-2-oxoethyl)-2-(3,6-dihydro-2H-pyran-4-yl)-5-ethyl-7-oxo-4,7-dihydro-[1,2,4]triazolo[1,5-a]pyrimidin-6-yl)piperazin-1-yl)-2-oxoethyl)-3-hydroxyisonicotinamide], the pIC50 in test [1] and in test [2] was more than 7.00 each time.
Turning to `CCc1c(N2CCN(C(=O)C(=O)Nc3cc(C)no3)CC2)c(=O)n2nc(C3=CCOCC3)nc2n1CC(=O)Nc1ccc(C(F)(F)F)cc1F` [Example 324, 2-(4-(2-(3,6-Dihydro-2H-pyran-4-yl)-5-ethyl-4-(2-((2-fluoro-4-(trifluoromethyl)phenyl)amino)-2-oxoethyl)-7-oxo-4,7-dihydro-[1,2,4]triazolo[1,5-a]pyrimidin-6-yl)piperazin-1-yl)-N-(3-methylisoxazol-5-yl)-2-oxoacetamide], the pIC50 in test [1] and in test [2] was more than 7.00 each time.
Consider `CCc1c(N2CCN(S(N)(=O)=O)CC2)c(=O)n2nc(C3=CCOCC3)nc2n1CC(=O)Nc1ccc(C(F)(F)F)cc1Cl` [Example 28, N-(2-Chloro-4-(trifluoromethyl)phenyl)-2-(2-(3,6-dihydro-2H-pyran-4-yl)-5-ethyl-7-oxo-6-(4-sulfamoylpiperazin-1-yl)-[1,2,4]triazolo[1,5-a]pyrimidin-4(7H)-yl)acetamide], for which the pIC50 in test [1] and in test [2] was 6.00 to 7.00 in each case.
As for `CCc1c(N2CCN(C(=O)c3ccc[nH]c3=O)CC2)c(=O)n2nc(C3=CCOCC3)nc2n1CC(=O)Nc1ccc(C(F)(F)F)cc1Cl` [Example 65, N-(2-Chloro-4-(trifluoromethyl)phenyl)-2-(2-(3,6-dihydro-2H-pyran-4-yl)-5-ethyl-7-oxo-6-(4-(2-oxo-1,2-dihydropyridine-3-carbonyl)piperazin-1-yl)-[1,2,4]triazolo[1,5-a]pyrimidin-4(7H)-yl)acetamide], the pIC50 in test [1] and in test [2] was 6.00 to 7.00 throughout.
For `CCc1c(N2CCN(C(=O)c3nccn(C)c3=O)CC2)c(=O)n2nc(C3=CCOCC3)nc2n1CC(=O)Nc1ccc(C(F)(F)F)cc1Cl` [Example 54, N-(2-Chloro-4-(trifluoromethyl)phenyl)-2-(2-(3,6-dihydro-2H-pyran-4-yl)-5-ethyl-6-(4-(4-methyl-3-oxo-3,4-dihydropyrazine-2-carbonyl)piperazin-1-yl)-7-oxo-[1,2,4]triazolo[1,5-a]pyrimidin-4(7H)-yl)acetamide], the pIC50 in test [1] and in test [2] was 6.00 to 7.00 in each case.
On to `CCc1c(N2CCN(C(=O)c3cccc(=O)[nH]3)CC2)c(=O)n2nc(C3=CCOCC3)nc2n1CC(=O)Nc1ccc(C(F)(F)F)cc1Cl` [Example 78, N-(2-Chloro-4-(trifluoromethyl)phenyl)-2-(2-(3,6-dihydro-2H-pyran-4-yl)-5-ethyl-7-oxo-6-(4-(6-oxo-1,6-dihydropyridine-2-carbonyl)piperazin-1-yl)-[1,2,4]triazolo[1,5-a]pyrimidin-4(7H)-yl)acetamide], for which the pIC50 in test [1] and in test [2] was more than 7.00 throughout.
In the case of `CCc1c(N2CCN(C(=O)CNC(=O)Nc3ccccc3C#N)CC2)c(=O)n2nc(C3=CCOCC3)nc2n1CC(=O)Nc1ccc(C(F)(F)F)cc1Cl` [Example 187, N-(2-Chloro-4-(trifluoromethyl)phenyl)-2-(6-(4-(((2-cyanophenyl)carbamoyl)glycyl)piperazin-1-yl)-2-(3,6-dihydro-2H-pyran-4-yl)-5-ethyl-7-oxo-[1,2,4]triazolo[1,5-a]pyrimidin-4(7H)-yl)acetamide], the pIC50 in test [1] and in test [2] was more than 7.00 each time.
Consider `CCc1c(N2CCN(C(=O)CNC(=O)c3cc(F)cc(NC)c3)CC2)c(=O)n2nc(N3CCOCC3)nc2n1CC(=O)Nc1ccc(C(F)(F)F)cc1F` [Example 253, N-(2-(4-(5-Ethyl-4-(2-((2-fluoro-4-(trifluoromethyl)phenyl)amino)-2-oxoethyl)-2-morpholino-7-oxo-4,7-dihydro-[1,2,4]triazolo[1,5-a]pyrimidin-6-yl)piperazin-1-yl)-2-oxoethyl)-3-fluoro-5-(methylamino)benzamide], for which the pIC50 in test [1] and in test [2] was more than 7.00 in each case.
With `CCc1c(N2CCN(C(=O)CNC(=O)c3ncco3)CC2)c(=O)n2nc(C3=CCOCC3)nc2n1CC(=O)Nc1ccc(C(F)(F)F)cc1Cl` [Example 123, N-(2-(4-(4-(2-((2-Chloro-4-(trifluoromethyl)phenyl)amino)-2-oxoethyl)-2-(3,6-dihydro-2H-pyran-4-yl)-5-ethyl-7-oxo-4,7-dihydro-[1,2,4]triazolo[1,5-a]pyrimidin-6-yl)piperazin-1-yl)-2-oxoethyl)oxazole-2-carboxamide], the pIC50 in test [1] and in test [2] was more than 7.00 each time.
In the case of `CCc1c(N2CCN(C(=O)C(N)=O)CC2)c(=O)n2nc(C3=CCOCC3)nc2n1CC(=O)Nc1ccc(C(F)(F)F)cc1Cl` [Example 89, 2-(6-(4-(2-Amino-2-oxoacetyl)piperazin-1-yl)-2-(3,6-dihydro-2H-pyran-4-yl)-5-ethyl-7-oxo-[1,2,4]triazolo[1,5-a]pyrimidin-4(7H)-yl)-N-(2-chloro-4-(trifluoromethyl)phenyl)acetamide], the negative-log IC50 (pIC50) in test [1] and in test [2] was more than 7.00 throughout.
In the case of `CCc1c(N2CCN(C(=O)c3cnc4ncsc4c3O)CC2)c(=O)n2nc(C3=CCOCC3)nc2n1CC(=O)Nc1ccc(C(F)(F)F)cc1Cl` [Example 81, N-(2-Chloro-4-(trifluoromethyl)phenyl)-2-(2-(3,6-dihydro-2H-pyran-4-yl)-5-ethyl-6-(4-(7-hydroxythiazolo[4,5-b]pyridine-6-carbonyl)piperazin-1-yl)-7-oxo-[1,2,4]triazolo[1,5-a]pyrimidin-4(7H)-yl)acetamide], the pIC50 in test [1] and in test [2] was more than 7.00 throughout.
